Patent US20170050957A1, “4-AMINO-6-(HETEROCYCLIC)PICOLINATES AND 6-AMINO-2-(HETEROCYCLIC)PYRIMIDINE-4-CARBOXYLATES AND THEIR USE AS HERBICIDES” (Dow AgroSciences LLC, priority 2013, published 2017)
Like-named read-outs stand apart in the source and are kept apart here.

Key:
[1] = system: Key Broadleaf Weed and Crop Species; experiment: Post-emergent Test II herbicidal activity (Table 15); format: in vivo; conditions: post-emergence, 336 h, 14 d; for pest or weed control at 35 g/ha: 35 g ai/ha; for pest or weed control at 70 g/ha: 70 g ai/ha; for pest or weed control at 140 g/ha: 140 g ai/ha
Method in brief: (§1)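 Visual injury rating (0 = none, 100% = complete kill) made 14 d after treatment, relative to untreated plants. Compounds in an acetone/DMSO/aqueous crop-oil/surfactant spray, at top rate and serial 1/2×-1/16× rates, were applied at 187 L/ha overhead to first-second true leaf plants raised 7-21 d in greenhouse.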

[2] = system: Key Grass and Sedge Weeds as well as Grass Crops; experiment: Post-emergent Test II herbicidal activity (Table 16); format: in vivo; conditions: post-emergence, 336 h, 14 d; for pest or weed control at 35 g/ha: 35 g ai/ha; for pest or weed control at 70 g/ha: 70 g ai/ha; for pest or weed control at 140 g/ha: 140 g ai/ha
Method in brief: as §1

[3] = system: undesirable vegetation; experiment: Herbicidal activity, comparison X is CF with X is CH; format: in vivo; conditions: 1.08 and 1.09 vs 1.21 and 1.22; 1.15 and 1.16 vs 1.23 and 1.24; A is A15
[4] = Abutilon theophrasti, velvetleaf (Abutilon theophrasti), read-out: Visual Growth Reduction (%) 14 Days After Application, ABUTH
[5] = Amaranthus retroflexus, redroot pigweed (Amaranthus retroflexus), read-out: Visual Growth Reduction (%) 14 Days After Application, AMARE
[6] = Brassica napus, oilseed rape, canola (Brassica napus), read-out: Visual Growth Reduction (%) 14 Days After Application, BRSNN
[7] = Chenopodium album, lambsquarters (Chenopodium album), read-out: Visual Growth Reduction (%) 14 Days After Application, CHEAL
[8] = Euphorbia heterophylla, wild poinsettia (Euphorbia heterophylla), read-out: Visual Growth Reduction (%) 14 Days After Application, EPHHL
[9] = Helianthus annuus, sunflower (Helianthus annuus), read-out: Visual Growth Reduction (%) 14 Days After Application, HELAN
[10] = Cyperus esculentus, yellow nutsedge (Cyperus esculentus), read-out: Visual Growth Reduction (%) 14 Days After Application, CYPES
[11] = Echinochloa crus-galli, barnyardgrass (Echinochloa crus-galli), read-out: Visual Growth Reduction (%) 14 Days After Application, ECHCG
[12] = Oryza sativa, rice (Oryza sativa), read-out: Visual Growth Reduction (%) 14 Days After Application, ORYSA
[13] = Setaria faberi, giant foxtail (Setaria faberi), read-out: Visual Growth Reduction (%) 14 Days After Application, SETFA
[14] = Triticum aestivum, wheat, spring (Triticum aestivum), read-out: Visual Growth Reduction (%) 14 Days After Application, TRZAS
[15] = Zea mays, maize, corn (Zea mays), read-out: Visual Growth Reduction (%) 14 Days After Application, ZEAMX

Compound | pest or weed control at 35 g/ha [1, 4] [%] | pest or weed control at 70 g/ha [1, 4] [%] | pest or weed control at 140 g/ha [1, 4] [%] | pest or weed control at 70 g/ha [1, 5] [%] | pest or weed control at 35 g/ha [1, 6] [%] | pest or weed control at 70 g/ha [1, 6] [%] | pest or weed control at 140 g/ha [1, 6] [%] | pest or weed control at 35 g/ha [1, 7] [%] | pest or weed control at 70 g/ha [1, 7] [%] | pest or weed control at 140 g/ha [1, 7] [%] | pest or weed control at 35 g/ha [1, 8] [%] | pest or weed control at 70 g/ha [1, 8] [%] | pest or weed control at 140 g/ha [1, 8] [%] | pest or weed control at 35 g/ha [1, 9] [%] | pest or weed control at 70 g/ha [1, 9] [%] | pest or weed control at 140 g/ha [1, 9] [%] | pest or weed control at 35 g/ha [2, 10] [%] | pest or weed control at 70 g/ha [2, 10] [%] | pest or weed control at 140 g/ha [2, 10] [%] | pest or weed control at 35 g/ha [2, 11] [%] | other results
COC(=O)c1nc(-c2ccc3cc[nH]c3c2F)c(F)c(N)c1Cl [Compound 1.15, Methyl 4-amino-3-chloro-5-fluoro-6-(7-fluoro-1H-indol-6-yl)picolinate] | 95 to 100 | 95 to 100 | 95 to 100 | 95 to 100 | 75 to 84 | 95 to 100 | 95 to 100 | 95 to 100 | 95 to 100 | 95 to 100 | 95 to 100 | 95 to 100 | 95 to 100 | 95 to 100 | 95 to 100 | 95 to 100 | 0 to 29 | 60 to 74 | 45 to 59 | 75 to 84 | pest or weed control at 35 g/ha [1, 5]: 95 to 100%; pest or weed control at 140 g/ha [1, 5]: 95 to 100%; pest or weed control at 70 g/ha [2, 11]: 85 to 94%; pest or weed control at 140 g/ha [2, 11]: 95 to 100%; pest or weed control at 35 g/ha [2, 12]: 0 to 29%; pest or weed control at 70 g/ha [2, 12]: 0 to 29%; pest or weed control at 140 g/ha [2, 12]: 30 to 44%; pest or weed control at 35 g/ha [2, 13]: 60 to 74%; pest or weed control at 70 g/ha [2, 13]: 60 to 74%; pest or weed control at 140 g/ha [2, 13]: 85 to 94%; pest or weed control at 35 g/ha [2, 14]: 45 to 59%; pest or weed control at 70 g/ha [2, 14]: 60 to 74%; pest or weed control at 140 g/ha [2, 14]: 60 to 74%; pest or weed control at 35 g/ha [2, 15]: 0 to 29%; pest or weed control at 70 g/ha [2, 15]: 30 to 44%; pest or weed control at 140 g/ha [2, 15]: 60 to 74%; activity when X is CF compared with X is CH [3]: significant increase in activity
COC(=O)c1nc(-c2cccc3[nH]ccc23)c(F)c(N)c1Cl [Compound 1.40] | 0 to 29 | 0 to 29 | 0 to 29 | 95 to 100 | 0 to 29 | 0 to 29 | 0 to 29 | 0 to 29 | 0 to 29 | 0 to 29 | 0 to 29 | 0 to 29 | 0 to 29 | 0 to 29 | 30 to 44 | 45 to 59 | 0 to 29 | 0 to 29 | 0 to 29 | 0 to 29 | pest or weed control at 70 g/ha [2, 11]: 0 to 29%; pest or weed control at 140 g/ha [2, 11]: 0 to 29%; pest or weed control at 35 g/ha [2, 12]: 0 to 29%; pest or weed control at 70 g/ha [2, 12]: 0 to 29%; pest or weed control at 140 g/ha [2, 12]: 0 to 29%; pest or weed control at 35 g/ha [2, 13]: 0 to 29%; pest or weed control at 70 g/ha [2, 13]: 0 to 29%; pest or weed control at 140 g/ha [2, 13]: 0 to 29%; pest or weed control at 35 g/ha [2, 14]: 0 to 29%; pest or weed control at 70 g/ha [2, 14]: 0 to 29%; pest or weed control at 140 g/ha [2, 14]: 0 to 29%; pest or weed control at 35 g/ha [2, 15]: 0 to 29%; pest or weed control at 70 g/ha [2, 15]: 0 to 29%; pest or weed control at 140 g/ha [2, 15]: 0 to 29%; melting point: 233 to 236 °C
